{
  "source": "ChEMBL document CHEMBL1152340",
  "about": "“Flavonoid glucuronides and a chromone from the aquatic macrophyte Stratiotes aloides” (2009)",
  "key": {"[1]": {"test": "Cytotoxicity against human PA-TU-8902 cells at 50 uM after 4 days by DAPI staining method relative to control", "type": "functional"}, "SH-SY5Y [2]": {"system": "SH-SY5Y", "test": "Cytotoxicity against human SH-SY5Y cells after 4 days by DAPI staining method", "type": "functional, cell-based"}, "SH-SY5Y [3]": {"system": "SH-SY5Y", "test": "Cytotoxicity against human SH-SY5Y cells at 10 uM after 4 days by DAPI staining method", "type": "functional"}, "SH-SY5Y [4]": {"system": "SH-SY5Y", "test": "Induction of apoptosis in human SH-SY5Y cells assessed as DNA fragmentation at 50 uM after 4 days by Hoechst 33342 method", "type": "functional, cell-based"}, "SH-SY5Y [5]": {"system": "SH-SY5Y", "test": "Cytotoxicity against human SH-SY5Y cells at 50 uM after 4 days by DAPI staining method", "type": "functional"}},
  "note": "The source made the active and inactive calls. The rule behind the calls is not given here.",
  "data": [
    {"compound": "O=C(O)[C@H]1O[C@@H](O[C@H]2[C@H](Oc3cc(O)c4c(=O)cc(-c5ccc(O)c(O)c5)oc4c3)O[C@H](CO)[C@@H](O)[C@@H]2O)[C@H](O)[C@@H](O)[C@@H]1O", "values": [
      {"measurement": "Activity", "setting": "[1]", "result": 20, "unit": "%"},
      {"measurement": "Activity", "setting": "SH-SY5Y [2]", "result": "Dose-dependent effect"},
      {"measurement": "Activity", "setting": "SH-SY5Y [3]", "result": 75, "unit": "%"},
      {"measurement": "Activity", "setting": "SH-SY5Y [4]", "result": "Active"},
      {"measurement": "Activity", "setting": "SH-SY5Y [5]", "result": 75, "unit": "%"}
    ]}
  ]
}
